# Test results from patent publication US12582638B2, “Pharmaceutical composition for treating cancer, containing mTOR-signaling inhibitor as active ingredient” (KOREA ADVANCED INSTITUTE OF SCIENCE AND TECHNOLOGY, priority 2020, dated 2026).
# Experiments:
# [1] = system: p-AKT, p-mTOR, p-S6K, p-S6; test: Cell signaling assay, western blot, HCT116; assay type: cell-based, human; details: 0, 5, and 10 μM, dose-dependent, FIG. 6
# Experimental: (§1) Cells treated with various concentrations (0, 5, and 10 μM) of lomitapide were lysed with RIPA buffer containing a protease-inhibitor cocktail. The whole-cell lysate was incubated on ice for 30 minutes. After centrifugation at 4° C. and 13,300×g for 15 minutes, the supernatant was collected. For use as controls, HCT116, SW480, HT29, MDA-MB-231, and MDA-MB-468 cells were treated with 1 μM of torin, known as an mTOR inhibitor.
# (§2) For western blot analysis, the supernatant was loaded onto 10% SDS-PAGE gel. The separated proteins were blotted onto a PVDF membrane. Then, the blots were incubated with antibodies at 4° C. for 12 hours as follows (Table 2).
# (§3) Then, the blots were washed with TBST (a mixture of tris-buffered saline (TBS) and Tween 20), incubated with horseradish peroxidase-conjugated secondary antibody (Cell signaling) at 37° C. for 1 hour, and washed, followed by detecting enhanced chemiluminescence (ECL; Amersham).
# p-S6K, p-S6, LC3 [2] = test: Cell signaling assay, western blot, MDA-MB-231; assay type: cell-based, human; details: 0, 5, and 10 μM, FIG. 7c
# Experimental: as §1, §2, §3
# p-S6K, p-S6, LC3 [3] = test: Cell signaling assay, western blot, MDA-MB-468; assay type: cell-based, human; details: 0, 5, and 10 μM, FIG. 7d
# Experimental: as §1, §2, §3
# p-S6K, p-S6, LC3 [4] = test: Cell signaling assay, western blot, HS746T; assay type: cell-based, human; details: 0, 5, and 10 μM, FIG. 7e
# Experimental: as §1, with “concentration” for “concentrations”, “controls,” for “controls, HCT116, SW480, HT29, MDA-MB-231, and MDA-MB-468”
# (§4) For western blot analysis, the supernatant was loaded onto 10% SDS-PAGE gel. The separated proteins were blotted onto a PVDF membrane. Then, the blots were incubated with antibodies at 4° C. for 12 hours as follows (Table 3).
# as §3
# p-S6K, p-S6, LC3 [5] = test: Cell signaling assay, western blot, SNU1; assay type: cell-based, human; details: 0, 5, and 10 μM, FIG. 7f
# Experimental: as §1, with “concentration” for “concentrations”, “controls,” for “controls, HCT116, SW480, HT29, MDA-MB-231, and MDA-MB-468”
# as §4, §3
# HCT116 = test: RNA-seq assay, gene set enrichment, pathway enrichment and DEG analysis; assay type: cell-based, human; details: FIG. 12
# Experimental: For the final detection of significant gene-sets, gene annotation databases (KEGG pathway, Gene Ontology, etc.) with various biological information about genes were used to discover various gene-sets by grouping genes with specific functions among all the genes used in the RNA-seq experiment. Significant genes were determined with reference to a difference in expression values between the two classes within each gene-set, and statistically significant gene-set was finally detected based on the significant genes. […] In DEG analysis, expression values of genes are measured and statistically processed to select a significant gene candidate group (differentially expression genes) with a difference in expression between a control and a comparison group.
# HCT116 cells = test: HCT116 mouse xenograft model, tumor size; assay type: in vivo; details: BALB/c nude mice; 50 mg/kg or 25 or 50 mg/kg intraperitoneally, or 10 mg/kg intratumorally; vs DMSO control; FIG. 14
# Experimental: Lomitapide was examined for anticancer effect in tumor-implanted mice by monitoring tumor sizes in the mouse xenograft model after treatment with lomitapide.
# Animal experiments were conducted according to the guideline approved by the institutional animal care and use committee in the Korean Advanced Institute of Science and Technology. HCT116 cells (4×10^6) were injected subcutaneously into male BALB/c nude mice at 8-12 weeks of age. After an average tumor volume reached 50 mm^3, the mice were randomly divided into two groups (5 mice/group). The mice were measured for weight and tumor size every two days. Tumor sizes were measured using calipers and determined according to formula 0.5×(width)^2×(Length). P-values were determined using Student's T test. Lomitapide was intraperitoneally injected at a dose of 50 mg/kg into the mice at days 1, 2, 3, 7, 8, 9, 13, 14, 15, and 16 after start of the experiment. For a control, DMSO was injected intraperitoneally into the mice (FIG. 14a).
# An additional animal experiment was conducted. Lomitapide was intraperitoneally injected at a dose of 25 or 50 mg/kg into mice five times every two days after start of the experiment. Intraperitoneal injection of DMSO into mice was conducted for a control (FIG. 14b). […]
# MC38 colorectal cancer = test: Mouse homograft tumor model, MC38 colorectal cancer; assay type: in vivo; details: MC38 in C57B6/N mice
# Experimental: (§5) For mouse homograft tumor model, experiments were conducted using female C57B6/N mice (wild-type, 6 weeks old) with MC38 colorectal cancer and B16F10 melanoma cell lines. MC38 colorectal cancer and B16F10 melanoma cell lines were each subcutaneously injected at a dose of 2×10^5 cells. Lomitapide used in the two models was formulated with 45% saline, 40% PEG300, 5% Tween-80, and 10% DMSO.
# (§6) From 10 days after the DMC38 colorectal cancer cells injection, lomitapide was intraperitoneally injected five times at a dose of 20 mg/kg, and anti-PD-1 mAb (clone RMP1-14, BioXCell, West Lebanon, NH, USA) or rat IgG2a iso-type control (clone 2A3, BioXCell, BE0089) in PBS was administered at a dose of 10 mg/kg at days 1, 4, 7, and 10 (FIGS. 18a and 18b).
# [6] = system: immunocytes (CD4+, CD4+/CD44+, CD8+, CD8+/IFNη, Foxp3, NK, and NK/IFNγ); test: Immunocyte analysis in MC38 homograft model; assay type: in vivo, mouse; details: lomitapide alone
# Experimental: as §5, §6
# In addition, MC38 colorectal cancer cells were analyzed for immunocytes (CD4+, CD4+/CD44+, CD8+, CD8+/IFNη, Foxp3, NK, and NK/IFNγ).
smiles,measurement,setting,value
"O=C(NC1CCN(CCCCC2(C(=O)NCC(F)(F)F)c3ccccc3-c3ccccc32)CC1)c1ccccc1-c1ccc(C(F)(F)F)cc1 [lomitapide, N-(2,2,2-trifluoroethyl)-9-[4-[4-[[[4′-(trifluoromethyl)[1,1′-biphenyl]2-yl]carbonyl]amino]-1-piperidinyl]butyl]-9H-fluoren-9-carboxamide]","phosphorylation of target proteins levels (p-AKT, p-mTOR, p-S6K, p-S6)",[1],decreased phosphorylation
same,conversion from LC3I into LC3II,"p-S6K, p-S6, LC3 [2]",increased induction of conversion from LC3I into LC3II
same,phosphorylation levels of target proteins (p-S6K and p-S6),"p-S6K, p-S6, LC3 [2]",remarkably decreased phosphorylation levels
same,conversion from LC3I into LC3II,"p-S6K, p-S6, LC3 [3]",increased induction of conversion from LC3I into LC3II
same,phosphorylation levels of target proteins (p-S6K and p-S6),"p-S6K, p-S6, LC3 [3]",remarkably decreased phosphorylation levels
same,conversion from LC3I into LC3II,"p-S6K, p-S6, LC3 [4]",increased induction of conversion from LC3I into LC3II
same,"phosphorylation levels of target proteins (p-S6K, p-S6)","p-S6K, p-S6, LC3 [4]; dose-dependent",remarkably decreased phosphorylation levels
same,conversion from LC3I into LC3II,"p-S6K, p-S6, LC3 [5]",increased induction of conversion from LC3I into LC3II
same,"phosphorylation levels of target proteins (p-S6K, p-S6)","p-S6K, p-S6, LC3 [5]; dose-dependent",remarkably decreased phosphorylation levels
same,"expression of autophagy-related genes ATG family, ULK1, and DDIT4 (DEG analysis)",HCT116,significantly expressed
same,tumor growth (tumor size),HCT116 cells,"grow slowly, compared to the control"
same,tumor growth compared to the groups treated with the anti-PD-1 mAb,"MC38 colorectal cancer; lomitapide 20 mg/kg i.p., anti-PD-1 mAb 10 mg/kg",greatly suppressed and reduced
same,tumor growth compared to the control,MC38 colorectal cancer; lomitapide 20 mg/kg intraperitoneally five times,significantly suppressed and reduced tumor growth
same,level of CD4+ immunocytes vs group treated with anti-PD-1 mAb alone,[6],superior
same,level of CD4+/CD44+ immunocytes vs group treated with anti-PD-1 mAb alone,[6],similar
same,level of CD8+ immunocytes vs group treated with anti-PD-1 mAb alone,[6],similar
same,level of CD8+/IFNη immunocytes vs group treated with anti-PD-1 mAb alone,[6],similar
same,level of Foxp3 immunocytes vs group treated with anti-PD-1 mAb alone,[6],similar
same,level of NK immunocytes vs group treated with anti-PD-1 mAb alone,[6],superior
same,level of NK/IFNγ immunocytes vs group treated with anti-PD-1 mAb alone,[6],superior
